Results taken from patent US11542287B2, “Alkyldiphenylmethane protective agent” (priority 2017, dated 2023).
Converted amounts (≈) assume the structure as drawn. Peptide text beside a SMILES is read from it.

Experiment: physchem
Format: physicochemical
Description: Results of measurement of solubility of a peptide protected with an alkyldiphenylmethane protective agent of the present invention are shown below.
Peptide used as model: H-Phe-Leu-Gly-NH2
H-Phe-Leu-Gly-NH2 and H-Phe-Leu-Gly-NH-(TIPS2-Dpm(Me)) were synthesized, CPME (cyclopentyl methyl ether) was saturated with each of the compounds at 25° C., and the solubility was measured.
As a result, merely 0.2 mM of H-Phe-Leu-Gly-NH2 to which an alkyldiphenylmethane protective agent was not bonded was dissolved in CPME. […] H-Phe-Leu-Gly-NH2 and H-Phe-Leu-Gly-NH-(TIPS2-Dpm(Me)) represent the following structures.

SMILES	increase in solubility versus H-Phe-Leu-Gly-NH2	solubility [µM]
CC(C)C[C@H](NC(=O)[C@@H](N)Cc1ccccc1)C(=O)NCC(=O)NC(C)(c1ccc(OCCCCCCCCCCCO[Si](C(C)C)(C(C)C)C(C)C)cc1)c1ccc(OCCCCCCCCCCCO[Si](C(C)C)(C(C)C)C(C)C)cc1 [H-Phe-Leu-Gly-NH-(TIPS2-Dpm(Me))]	≥ 4,190 fold	≥ 838000
CC(C)C[C@H](NC(=O)[C@@H](N)Cc1ccccc1)C(=O)NCC(N)=O [H-Phe-Leu-Gly-NH2, reference compound] (H-Phe-Leu-Gly-NH2)		200 (≈ 0.0669 mg/mL)
